In US6699498B1, “Transdermal therapeutic systems having improved stability and their production” (LTS Lohmann Therapie-Systeme AG, priority 1999, dated 2004):

Tests used:
[1] = Test reaction of active substance with t-butyl hydroperoxide under reflux; format: physicochemical; settings: chloroform; for Identified degradation product in reaction with t-butyl hydroperoxide: reflux 6 hours
Text: To determine the sensitivity of the active substance to oxidation reactions with hydroperoxides, an easily implemented test reaction has been developed. For this purpose, the active substance in chloroform or another appropriate solvent is reacted with t-butyl hydroperoxide under reflux. If oxidative degradation products of the active substance are found in this reaction mixture, they can be attributed to the reaction with hydroperoxide. Often, degradation of the active substance is also evident very simply from a discoloration of the test solution. The practical conclusion to be drawn from a positive outcome of the test reaction is that when formulating a transdermal system using this active substance the auxiliaries used should include only those which are substantially free from hydroperoxides.
80 ml of chloroform and 1 g of t-butyl hydroperoxide are added to 0.5 g of the active substance and this system is heated under reflux with stirring for 6 hours. The reaction mixture is subsequently assessed for its color and analyzed using an appropriate chromatographic method for degradation products formed.

[2] = Peroxide number (PON) of raw materials; format: physicochemical; settings: raw material following approximately 6 months' storage at room temperature
Text: The peroxide content is commonly expressed by means of the so-called peroxide number PON, which indicates the amount of milliequivalents of active oxygen per kg of substance. There are various methods of determining the peroxide number. The most customary is to react a defined amount of substance in a chloroform/glacial acetic acid solution with an excess of iodide ions and then to back-titrate the resultant iodine using sodium thiosulfate. A less common method, which is restricted to aqueous solutions, is to react the substance with titanium(IV) ions and to measure the resultant peroxo complex by photometry. A semiquantitative test for peroxides which is particularly easy to implement is carried out using commercial […].
The table below lists the measured peroxide numbers of some exemplary substances used to produce reservoir and matrix systems, following approximately 6 months' storage at room temperature. The peroxide numbers were measured by the two first-mentioned methods.

Compound	Identified degradation product in reaction with t-butyl hydroperoxide [1]	PON (peroxide number) [2]	further results
CCCN(CCc1cccs1)[C@H]1CCc2c(O)cccc2C1 [N-0923 base]	1,2-dihydronaphth-8-ol		
CCCCCCCC/C=C\CCCCCCCCO [Oleyl alcohol]		50 milliequivalents of active oxygen per kg of substance	
C=C(C)[C@H]1CC=C(C)CC1 [Limonene]		15 milliequivalents of active oxygen per kg of substance	
CCOCCOCCO [Diethylene glycol monoethyl ether]		120 milliequivalents of active oxygen per kg of substance	
CCCN1C[C@H](CSC)C[C@@H]2c3cccc4[nH]cc(c34)C[C@H]21 [pergolide]	Oxidation of the sulfide sulfur to the sulfoxide		
Cc1cc2c(OCC(CNC(C)(C)C)OC(=O)c3ccccc3)cccc2[nH]1 (stereo not drawn) [bopindolol]			Color of reaction mixture with t-butyl hydroperoxide ([1]; reflux): yellowish discoloration which then becomes strongly brown
